# Patent publication US20260199444A1, “VACCINES AGAINST PROTEIN TYROSINE PHOSPHATASE RECEPTOR TYPE Z1 (PTPRZ1) -POSITIVE TUMORS” (ALTEVAX, priority 2022, published 2026)
# Columns and labels:
# [1] = tested on: HLA-A2/DR1 mice; test: Melanin-based vaccine (plus CpG-28) subcutaneous immunization, CD8 T-cell response by IFNg-SFC count of re-stimulated splenocytes; format: in vivo; settings: for T-cell Immune response: mean +/− SEM (number of mice): peptide 10 μg/mouse with synthetic melanin (peptide/L-Dopa 1/4) and CpG-28 10 μg/mouse, subcutaneous, day 8, splenocytes re-stimulated with the corresponding MHC class I epitope; for immune response after immunization (in words): melanin-based vaccine, HLA-A2/DR1 mice
# From the text: For the purpose of selecting a relevant PTPRZ1 antigen to be used in human patients, several peptides containing various PTPRZ1 immune epitopes were screened. The immunogenicity of these various peptides were screened by vaccinations in HLA-A2/DR1 mice (also known as Surel1 model). HLA-A2/DR1 mice are transgenic mice mimicking the human's immune system. As a vaccine procedure for screening, a melanin-based vaccine was used, as described in WO2021165306.
# Using a melanin-based vaccine in HLA-A2/DR1 mice, these epitopes were then screened using peptides (SEQ ID NO: 5 to SEQ ID NO: 8) containing the epitope and an additional cysteine at the NH2-terminal, as it was disclosed in WO2021165306 that this modification increases the efficacy of melanin-based vaccine.
# For immunizations, L-Dopa (0.8 mg/ml) underwent an oxidative polymerization at pH 8.5 in aerobic conditions for 2 hours at 60° C. The reaction mixture was then filtered on a 10 kDa filter, and the retentate containing the synthetic melanin was resuspended in phosphate buffer. Peptides (10 μg/mouse) containing the epitopes (underlined) were then added (at the weight ratio peptide/L-Dopa=1/4) and the mixtures were used for subcutaneous immunizations in mice. Phosphorothioate oligonucleotide CpG-28 (5′-[…], SEQ ID NO: 16) was added to vaccine formulations (10 μg/mouse) just before the immunizations. Mice were sacrificed on day 8 and the CD8 T-cell response was performed as described in Carpentier; 2017. Briefly, splenocytes were re-stimulated in vitro with the corresponding MHC class I-epitope (non-conjugated to melanin) and the numbers of IFNg-SFCs (Spot forming cells) were measured and expressed as Mean+/−S.E.M.
# [2] = tested on: HLA-A2/DR1 mice; test: Peptide plus CpG-28 without melanin, subcutaneous immunization, CD8 T-cell response by IFNg-SFC count of re-stimulated splenocytes; format: in vivo; settings: for T-cell Immune response: mean +/− SEM (number of mice): peptide 10 μg/mouse with CpG-28 10 μg/mouse, no melanin, subcutaneous, day 8, splenocytes re-stimulated with the corresponding MHC class I epitope
# Experimental: In a different adjuvant formulation, SEQ ID NO: 4 and SEQ ID NO: 14 were studied in HLA-A2/DR1 mice.
# The peptides (10 μg/mouse) were mixed with the TLR9 agonist CpG-28 (SEQ ID NO: 16) (10 μg/mouse) and the mixtures were used for subcutaneous immunizations in mice. Mice were sacrificed on day 8 and the CD8 T-cell response was performed as described in Carpentier; 2017. Briefly, splenocytes were re-stimulated in vitro with the corresponding MHC class I-epitope (non-conjugated to melanin) and the numbers of IFNg-SFCs (Spot forming cells) were measured and expressed as Mean+/−S.E.M.
# [3] = tested on: transgenic SURE mice; test: Cross reactivity of T-cell responses after immunization with SEQ 14, splenocytes re-stimulated with SEQ 14 or native epitope SEQ 4; format: in vivo; settings: immunized with SEQ ID NO: 14, day 8, re-stimulation 18 hours, 5 μg/ml to 0.3 ng/ml, FIG. 1
# Experimental: FIG. 1: cross reactivity of T-cell responses obtained after immunizations with SEQ 14 in transgenic SURE mice. Mice were immunized against SEQ 14, as described in table 1, and sacrificed on day 8. The splenocytes (5.10^5 cells/well) were re-stimulated in vitro for 18 hours with either SEQ 14 or the native epitope SEQ 4 (both non-conjugated to melanin), at various concentrations (5 μg/ml to 0.3 ng/ml) and the numbers of IFNg-SFCs (Spot forming cells) were measured after a 18-hour incubation (representative experiments from 3 experiments)
# Mice were thus immunized with SEQ ID NO: 14, and it was checked whether T-cell response triggered by SEQ ID NO: 14 was able to similarly recognize the mutated epitote SEQ ID NO: 15 and the native epitope SEQ ID NO: 4.
# [4] = tested on: patients; settings: glioblastoma patients, Hilf et al (2019); cited from earlier work
Substance,T-cell Immune response: mean +/− SEM (number of mice) [1],other results
C AIIDGVESV (CAIIDGVESV) [SEQ ID NO: 7],3 +/− 1 (n = 4) IFNg-SFCs,–
C MIWEHNVEV (CMIWEHNVEV) [SEQ ID NO: 8],24 +/− 8 (n = 8) IFNg-SFCs,immune response after immunization (in words) [1]: able to trigger an immune response; immune response after immunization (in words) ([1]; listed as SEQ 8): weak
CKVFAGIPTV [SEQ ID NO: 5],288 +/− 37 (n = 8) IFNg-SFCs,immune response after immunization (in words) [1]: powerful immune response
CVLDSHIHAYVNALLIPGPAGK [SEQ ID NO: 6],7 +/− 5 (n = 4) IFNg-SFCs,–
H MIWEHNVEV (HMIWEHNVEV) [SEQ ID NO: 11],60 +/− 25 (n = 7) IFNg-SFCs,–
KIWEHNVEV [SEQ ID NO: 15],118 +/− 26 (n = 7) IFNg-SFCs,–
KK KIWEHNVEV (KKKIWEHNVEV) [SEQ ID NO: 14],287 +/− 26 (n = 8) IFNg-SFCs,"T-cell Immune response: mean +/− SEM (number of mice) [2]: 25 +/− 13 (n = 7) IFNg-SFCs; CD8 immune response after immunization without melanin (in words) ([2]; peptide with CpG-28, no melanin, compared with SEQ ID NO: 4): more potent; immune response after immunization (in words) [1]: strong CD8 immune response; reactivity against the native epitope (SEQ ID NO: 4) of lymphocytes primed with the modified epitope, compared with reactivity against the modified epitope [3]: even higher"
KP MIWEHNVEV (KPMIWEHNVEV) [SEQ ID NO: 13],80 +/− 34 (n = 7) IFNg-SFCs,–
"MIWEHNVEV [SEQ ID NO: 4, reference compound]",3 +/− 1 (n = 7) IFNg-SFCs,reactive CD8+ T cells against the peptide after immunization of patients [4]: found in some patients; T-cell Immune response: mean +/− SEM (number of mice) [2]: 11 +/− 4 (n = 7) IFNg-SFCs
P MIWEHNVEV (PMIWEHNVEV) [SEQ ID NO: 10],40 +/− 15 (n = 7) IFNg-SFCs,–
PK MIWEHNVEV (PKMIWEHNVEV) [SEQ ID NO: 12],61 +/− 30 (n = 7) IFNg-SFCs,–
